Test results published in patent publication EP1266659A1, “Pyridoxal in combination with serotonin re-uptake inhibitor for the treatment of hot flushes” (Pantarhei Bioscience B.V., priority 2001, dated 2002).
Structures can show the parent of a compound that is named as a salt.

Test system: peri-menopausal women experiencing at least 40-50 hot flushes per week
Description: A clinical study is conducted with 12 peri-menopausal women experiencing at least 40-50 hot flushes per week.
The study is designed as a so called double blind, cross-over study. During the study the medication is orally administered once a day. The visual aspects of the medication used is always the same, i.e. these aspects offer no clues as to the nature of the medication. The volunteers are asked to record the number of hot flushes they experience in a dairy (at least 1 entry per day).
During an initial period of 56 days (days 1-56), all 12 participants receive the same medication, i.e. 20 mg Fluoxetine HCl. Subsequently, the twelve women are randomly divided into two groups, i.e. group A with six women and group B with six women.

`CNCCC(Oc1ccc(C(F)(F)F)cc1)c1ccccc1` (stereo not drawn) [Fluoxetine HCl] was tested. Which “number of hot flushes experienced per day” value (all 12 participants, 20 mg Fluoxetine HCl orally once a day, days 1-56) did it give?
Its value is “decreases substantially over time”.

What about the “number of hot flushes” value (group A, 5mg Fluoxetine HCl + placebo orally once a day, days 169-281 (after the combination with vitamin B6)) of the same compound?
The value was “increases again over time”.

And the “daily number of hot flushes experienced” value (group B, 5mg Fluoxetine HCl + placebo orally once a day, days 57-168 (after 20 mg Fluoxetine HCl))?
Its value is “increases over time”.
